Laboratory results published in patent US20220088144A1, “SGLT-2 INHIBITORS OR IL-1R ANTAGONISTS FOR REDUCTION OF HYPOGLYCAEMIA AFTER BARIATRIC SURGERY” (UNIVERSITÄTSSPITAL BASEL, priority 2019, published 2022).

System: patients after bariatric surgery with post-prandial hypoglycaemia
Experiment: Liquid mixed-meal test after single dose: plasma glucose and glucose-requiring hypoglycaemic events
Assay type: in vivo, human
Conditions: for number of events (hypoglycemia requiring glucose rescue), estimate vs placebo: FIG. 5b, generalized linear additive mixed effect model; for glucose, estimate vs placebo: FIG. 5c, linear mixed effect model; for severity of hypoglycemic events / events requiring rescue glucose administration: pre-treatment vs placebo (7 of 12 patients on placebo), p=0.037; for glucose-requiring hypoglycaemic events (%): single dose before mixed meal, placebo 61.5%
Protocol: This study is a placebo controlled, double-blind, randomized, cross-over proof-of-concept study. The study consists of a screening visit and three study dates that need to have a minimum interval between the dates of four days and maximum of two weeks. Ideally, all three study dates are performed within 14 days allowing the usage of one single flash glucose monitoring system sensor (Freestyle Libre®, Abbott) for the entire period. The screening visit is about 90 min. Each study day lasts 6.5 hours and consists of the same schedule. If the subject agrees to use a glucose flash monitoring system, the sensor is installed the afternoon before study day 1 and the subject is instructed in the use of the system.
The 12 subjects were randomly assigned into six groups consisting of two subjects receiving study medication in a double-blind, crossed-over manner as outlined in FIG. 2. Patients need to be sober at least eight hours before ingestion of mixed-meal. To ensure that fasting period is not too long, patients receive a small late evening meal consisting of 4 DarVida Natural Crackers as well as 3 Sinergy® drops (see Appendix for specific contents) or are alternatively pleased to have their dinner at around 10 pm. Treatment consists of a single subcutaneous injection of 100 mg Anakinra (Kineret®) or matched placebo three hours before ingestion of the mixed-meal and of a single oral tablet of 10 mg of empagliflozin (Jardiance®) or matched placebo two hours before mixed-meal at each study day. Patients were randomised to receive in different sequences either (1) anakinra and an oral placebo to empagliflozin, (2) empagliflozin and a subcutaneous placebo (0.67 ml 0.9% saline) to anakinra or (3) double placebo. Participants, investigators and study nurses were blinded to the study drug.
Between the study drug application questionnaires concerning dumping symptoms were answered. Regular measurement of vital parameters, blood samples and hypoglycaemia assessments were performed as outlined in FIG. 1. After ingestion of the liquid mixed-meal subjects had to rest in supine position (at least 45°). One subject was not able to ingest the full specified liquid mixed meal (carbohydrate load of 40 g instead of 60 g) on the first study day and thereafter received the same portion of liquid mixed meal on subsequent study days.
In case of symptomatic hypoglycaemia before the prespecified next laboratory control immediate glucose measurements with Freestyle Libre® and POCT respectively were performed and in case of hypoglycemic values (<3.0 mmol/l) laboratory samples were drawn and glucose (10 g) was given intravenously. Samples were named according to the exact timepoint and the following pre-specified samples were taken according to the study schedule. If patients were not symptomatic glucose (10 g) was given intravenously only in case of POCT glucose values below 2.5 mmol/l.
Blood glucose measurements regularly took place and an inserted catheter in case of hypoglycaemia was adjusted at the beginning of each study date. In case of a symptomatic decrease of blood glucose levels in symptomatic patients below 2.5 mmol/l, counter-regulatory actions (e.g. 100 ml of 10% glucose) were initiated after taking the blood sample panel.
The primary outcome in this study is the change of post-prandial hypoglycaemia after treatment with empagliflozin (Jardiance®) or anakinra (Kineret®) compared to placebo. This was assessed by blood glucose measurements (capillary POCT measurements and plasma glucose) as well as clinical scoring systems (Edinburgh Hypoglycaemia Scale (Deary et al. Diabetologia 1993; 36(8): 771-7), Mixed-Meal-Test (Wiesli et al. Eur J Endocrinol 2005; 152(4): 605-10.) Stanford sleepiness scale).
At each study day the same schedule took place. […]

| Compound | glycaemia 30 minutes after ingestion of the mixed meal (30 min, 10 mg empagliflozin, the other value is placebo) | glycaemia 60 minutes after ingestion of the mixed meal (60 min, 10 mg empagliflozin, the other value is placebo) | glycaemia 90 minutes after ingestion of the mixed meal (90 min, 10 mg empagliflozin, the other value is placebo) | number of events (hypoglycemia requiring glucose rescue), estimate vs placebo | glucose, estimate vs placebo | severity of hypoglycemic events / events requiring rescue glucose administration | glucose-requiring hypoglycaemic events (%) | peak postprandial glucose levels (vs placebo) | changes of the glucose curve within the first 90 minutes (vs placebo) |
| --- | --- | --- | --- | --- | --- | --- | --- | --- | --- |
| OC[C@H]1O[C@@H](c2ccc(Cl)c(Cc3ccc(O[C@H]4CCOC4)cc3)c2)[C@H](O)[C@@H](O)[C@@H]1O [empagliflozin] | 10.1 mmol/L | 6.9 mmol/L | 3.5 | −2.882 | −0.472 | significantly reduced the severity of hypoglycemic events with only two events requiring rescue glucose administration | 16.6% | reduced |  |
| anakinra: CAS NO 143090-92-0; recombinant, non-glycosylated form of the human interleukin-1 receptor antagonist (IL-1 Ra), 153 amino acids |  |  |  | −2.882 | 0.133 | significantly reduced the severity of hypoglycemic events with only two events requiring rescue glucose administration | 16.6% |  | did not result in significant changes |
